In one assay the target is Kir1.1 (ROMK1) (Homo sapiens (Human), UniProt P48048). The assay is described as follows: Electrophysiology Assay (whole cell voltage clamp, IonWorks Quattro). Format: cell-based. The conditions noted are these: Chinese hamster ovary cells stably expressing Kir1.1; block during voltage step to 0 mV. The procedure: Block of Kir1.1 (ROMK1) currents was examined by whole cell voltage clamp (Hamill et. al. Pfluegers Archives 391:85-100 (1981)) using the IonWorks Quattro automated electrophysiology platform (Molecular Devices, Sunnyvale, Calif.). Chinese hamster ovary cells stably expressing Kir1.1 channels were maintained in T-75 flasks in cell culture media in a humidified 10% CO2 incubator at 37° C. Prior to an experiment, Kir1.1 expression was induced by overnight incubation with 1 mM sodium butyrate. On the day of the experiment, cells were dissociated with 2.5 mL of Versene (Invitrogen 15040-066) for approximately 6 min at 37° C. and suspended in 10 mL of bath solution containing (in mM): 150 NaCl, 10 KCl, 2.7 CaCl2, 0.5 MgCl2, 5 HEPES, pH 7.4. After centrifugation, the cell pellet was resuspended in approximately 4.0 mL of bath solution and placed in the IonWorks instrument. The intracellular solution consisted of (in mM): 80 K gluconate, 40 KCl, 20 KF, 3.2 MgCl2, 3 EGTA, 5 Hepes, pH 7.4. Electrical access to the cytoplasm was achieved by perforation in 0.13 mg/mL amphotericin B for 4 min. Amphotericin B (Sigma A-4888) was prepared as a 40 mg/mL solution in DMSO. Voltage protocols and current recordings were performed using the IonWorks HT software/hardware system. Currents were sampled at 1 kHz. No correction for liquid junction potentials was used. The test pulse, consisting of a 100 ms step to 0 mV from a holding potential of −70 mV, followed by a 100 ms voltage ramp from −70 mV to +70 mV, was applied before and after a 6 min compound incubation period. Test compounds were prepared by diluting DMSO stock solutions into the bath solution at 3× the final concentration and placed in the instrument in 96-well polypropylene plates. Current amplitudes were measured using the IonWorks software. To assess compound potency, the fractional block during the voltage step to 0 mV was calculated in Microsoft Excel (Microsoft, Redmond, Calif.), and dose-response curves were fitted with Igor Pro 4.0 (WaveMetrics, Lake Oswego, Oreg.). Normally, a control compound is included to support that the assay is giving consistent results compared to previous measurements, although the control is not required to obtain the results for the test compounds.
Kir1.1 (ROMK1), sequence (P48048 whole entry, species assumed): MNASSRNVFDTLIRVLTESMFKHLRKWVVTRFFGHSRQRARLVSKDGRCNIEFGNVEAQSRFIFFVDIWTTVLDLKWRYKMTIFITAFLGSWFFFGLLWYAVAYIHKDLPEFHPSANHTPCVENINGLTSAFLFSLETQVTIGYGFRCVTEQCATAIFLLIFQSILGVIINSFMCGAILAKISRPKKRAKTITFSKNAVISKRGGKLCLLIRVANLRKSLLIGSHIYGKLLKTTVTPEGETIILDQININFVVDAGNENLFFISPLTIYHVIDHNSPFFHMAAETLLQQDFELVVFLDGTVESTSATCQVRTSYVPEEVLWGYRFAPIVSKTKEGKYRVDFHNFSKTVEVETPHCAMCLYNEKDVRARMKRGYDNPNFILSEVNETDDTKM
(In general: Patch clamp records ionic current or voltage across a cell membrane.)

The target of the next assay is hROMK (hKir1.1) (Homo sapiens (Human), UniProt P48048). The assay is described as follows: Thallium Flux Assay (ROMK channel functional thallium flux assay, FLIPR-Tetra). Format: cell-based. The following applies: HEK293 cells stably expressing hROMK. The procedure: Cell Culture Conditions— HEK293 cells stably expressing hROMK (hKir1.1) were grown at 37° C. in a 10% CO2 humidified incubator in complete growth media: Dulbecco's Modified Eagle Medium supplemented with non-essential amino acids, Penicillin/Streptomycin/Glutamine, G418 and FBS. At >80% confluency, aspirate the media from the flask and rinse with 10 mL Calcium/Magnesium-free PBS. Add 5 mL of 1× trypsin (prepared in Ca/Mg Free PBS) to T-225 flask and return flask to 37° C./CO2 incubator for 2-3 minutes. To dislodge the cell, gently bang the side of the flask with your hand. Triturate the cells completely and then transfer the cells to 25 mL complete media. Centrifuge at 1,500 rpm for 6 min followed by resuspension in complete growth media and determine cell concentration. For typical re-seeding, 4E6 cells/T-225 flask will attain >80% confluency in 4 days. Under ideal growth conditions and appropriate tissue culture practices, this cell line is stable for 40-45 passages.
hROMK (hKir1.1), sequence (P48048 whole entry): as the sequence (P48048 whole entry, species assumed) above
FluxOR Kit Components (Invitrogen F10017)
• FluxOR™ Reagent (Component A) • FluxOR™ Assay Buffer (Component B)—10× Concentrate • PowerLoad™ Concentrate (Component C)—100× Concentrate • Probenecid (Component D)—Lyophilized sample is kept at −20° C. Water soluble, 100×after solubilization in 1 mL water. Store at 4° C. • FluxOR™ Chloride-free Buffer (Component E)—5× Concentrate • Potassium sulfate (K2SO4) Concentrate (Component F)—125 mM in water. Store at 4° C. • Thallium sulfate (Tl2SO4) Concentrate (Component G)—50 mM in water. Store at 4° C. • DMSO (dimethyl sulfoxide, Component H)—1 mL (100%) Reagent Preparation: FluxOR Working Solutions • 1000× FluxOR™ Reagent: Reconstitute a vial of component A in 100 μl DMSO; Mix well; Store 10 μl aliquots at −20° C. • 1× FluxOR™ Assay Buffer: Dilute Component B 10-fold with water; Adjust pH to 7.4 with Hepes/NaOH; Filter and store at 4° C. • Probenecid/Assay Buffer: 100 mL of 1× FluxOR™ Assay Buffer; 1 mL of reconstituted component D; Store at 4° C. • Loading Buffer (per microplate): 10 μl 1000× FluxOR™ Reagent; 100 μl component C; 10 mL Probenecid/Assay Buffer • Compound Buffer (per microplate): 20 mL Probenecid/Assay Buffer; 0.3 mM ouabain (10 mM ouabain in water can be stored in amber bottle/aluminum foil at room temperature); Test compound • 1× FluxOR™ Chloride-Free Buffer: Prepare 1× working solution in water. Can be stored at room temperature • Stimulant Buffer (prepared at 5× final concentration in 1× FluxOR™ Chloride-Free Buffer): 7.5 mM Thallium sulfate and 0.75 mM Potassium sulfate (to give a final assay concentration of 3 mM Thallium 0.3 mM Potassium). Store at 4° C. when not in use. If kept sterile, this solution is good for months.
Assay Protocol—The ROMK channel functional thallium flux assay is performed in 384 wells, using the FLIPR-Tetra instrument. HEK-hKir1.1 cells are seeded in Poly-D-Lysine microplates and kept in a 37° C.-10% CO2 incubator overnight. On the day of the experiment, the growth media is replaced with the FluxOR™ reagent loading buffer and incubated, protected from light, at ambient temperature (23-25° C.) for 90 min. The loading buffer is replaced with assay buffer±test compound followed by 30 min incubation at ambient temperature, where the Thallium/Potassium stimulant is added to the microplate.
• 1. Seed HEK-hKir1.1 cells ([…] at 20,000 cells/well) in 384-well PDL coated Microplates • 2. Allow cells to adhere overnight in humidified 37° C./10% CO2 incubator • 3. Completely remove cell growth media from microplate and replace with 25 μl loading buffer • 4. Incubate Microplate at room temperature, protected form light, for 90 min • 5. Remove loading buffer and replace with 25 μl 1× Assay Buffer±test compound. • 6. Incubate microplate at room temperature, protected from light, for 30 min • 7. At FLIPR-Tetra 384: Add stimulant (Thallium/Potassium) solution to microplate and monitor fluorescence. Excitation=400 nm, Emission=460 & 580 nm. Collect data for 10 min.

Structures are written as SMILES.

On to `CC1=C(N2C(=O)C3(CCN(C[C@H](O)c4ccc5c(c4C)COC5=O)CC3)CC2C)COC1=O` (single isomer, unassigned) [Example 30], for which the half-maximal inhibitory concentration (IC50) at Kir1.1 (ROMK1) and against hROMK (hKir1.1) was 20 nM throughout.
In the case of `CC1=C(N2CCC3(CCN(CC(O)c4ccc5c(c4F)COC5=O)CC3)C2=O)COC1=O` (single isomer, unassigned) [Example 80], the IC50 – broadly, the concentration needed to halve the response being measured – came to 10 nM on Kir1.1 (ROMK1) and 50 nM against hROMK (hKir1.1).
The corresponding values for `COC1CN(C[C@H](O)c2ccc3c(c2C)COC3=O)CCC12CCN(C1=C(C)C(=O)OC1)C2=O` (some centres unmarked) [Example 83] are 50 nM and 40 nM.
Take `Cc1c([C@@H](O)CN2CCC3(CCCN(C4=CC(=O)OC4)C3=O)CC2)ccc2c1COC2=O` [Example 23]: the IC50 worked out at 10 nM against Kir1.1 (ROMK1) and 20 nM on hROMK (hKir1.1).
Consider `O=C1C=C(N2CCC3(CCN(CC4OCCc5c4ccc4c5COC4=O)CC3)C2=O)CO1` (racemic) [Example 52], for which the IC50 is 60 nM at Kir1.1 (ROMK1) and 350 nM against hROMK (hKir1.1).
Regarding `O=C1C=C(N2CCC3(CCN(CCc4ccc5c(c4)COC5=O)CC3)C2=O)CO1` [Example 3], the values for the IC50 at Kir1.1 (ROMK1) and against hROMK (hKir1.1) were 70 nM and 290 nM, respectively.
Taken in the same sequence, the figures for `Cc1c([C@H](O)CN2CCC3(CC2)CCN(C2=CC(=O)OC2)C3=O)ccc2c1COC2=O` [Example 21] were 390 nM and 370 nM.

The values are drawn from patent publication US9206198B2, “Inhibitors of the renal outer medullary potassium channel” (Merck Sharp & Dohme Corp., priority 2012, dated 2015).
